# Data reported in patent US11014934B2, “Antiseptic drug” (AO “TATKHIMFARMPREPARATY”, priority 2017, dated 2021).
# Legend:
# Type in all cases: cell-based
# [1] = system: P.aeruginosa in the biofilm; experiment: Antibacterial activity against cells immersed in a biofilm matrix (CFU, drop plate); conditions: 24 hours
# Experimental: To determine the effectiveness of the antibiotic against bacteria in […], bacteria were grown in Basal medium for 3 days at a temperature of 37° C. without swinging to obtain a dense biofilm [A. R Kayumov, Khakimullina E., Sharafutdinov I, Trizna E., Latypova L., Lien Thi, Margulis A., Bogachev M, Kurbangalieva A. Inhibition of biofilm formation in Bacillus subtilis by new halogenated furanoses. J. Antibiotics.—2014.—V. 68.—No 5.—P. 297-301.]. Then the biofilm was washed with a sterile 0.9% NaCl solution and fresh sterile medium was poured. Antiseptics were added to concentrations (1-16)×MBC (minimum bactericidal concentration) and incubated for 24 hours. Then the culture fluid was removed from the wells, washed once with 0.9% NaCl solution to remove non-adherent cells, and cell viability in biofilms was evaluated by counting CFU by Drop plate analysis [B. Herigstad, M Hamilton, J. Heersink How to optimize the drop plate method for enumerating bacteria. J Microbiol Methods.—2001.—V. 44.—P. 121-129]. To do this, the biofilm was mechanically removed from the surface and homogenized in 0.9% NaCl by pipetting and ultrasonic treatment. Then, serial 10-fold dilutions of the bacterial suspension in 0.9% NaCl were prepared, and 5 μI of each suspension were transferred to plates with dense nutrient medium. CFU was counted from drops containing 5-10 colonies.
# The results of the study of antimicrobial activity against cells of the studied strains immersed in the biofilm matrix, in comparison with miramistin and benzalkonium chloride, are presented in FIGS. 1 and 2.
# [2] = system: Escherichia coli CDC F-50; experiment: Disinfectant activity in suspension test
# Experimental: (§1) To prepare a bacterial suspension of the culture, microorganisms grown in dense nutrient medium for (18-24) hours were washed off with a sterile isotonic sodium chloride solution. The bacterial suspension of each microorganism was brought to a turbidity corresponding to a concentration of 1×10^9 cells/ml, which corresponds to 3 units of McFarland. For experiments with protein loading, a solution of bovine serum albumin (BSA) was added to the bacterial suspension to a final concentration of 0.2%.
# (§2) Solutions of compound I, miramistin, and benzalkonium chloride were poured at a working concentration (0.1%, 0.2%) into a 24-well plate of 0.9 ml per well: 0.1 ml of microbial suspension was added to wells with disinfectant solutions and mixed by shaking for several seconds.
# (§3) At the end of 1, 5, and 15 minutes of exposure, 0.5 ml of a universal neutralizer was added and mixed by shaking to deactivate the drugs and stop their antimicrobial activity. The neutralizer consisted of tween-80 (Sigma-Aldrich)—3.0 ml, saponin (DIAEM)—3.0 g, histidine—0.1 g, cysteine—0.1 g in 100 ml of phosphate-buffered solution.
# (§4) The liquid was inoculated on a dense nutrient medium (Müller-Hinton agar) in 0.1 ml of the mixture, cultivation was carried out (24-48) hours at 37° C. Müller-Hinton broth was prepared from dry media (Mueller Hinton broth, Acumedia, Baltimore), cultivation was carried out on agarized Müller-Hinton broth, which included an additional 2% of agar. The media were autoclaved at 121° C. for 15 minutes.
# (§5) After the time required for the cultivation of microorganisms, the results were counted according to the number of colonies grown on the Petri dish. In the absence of growth, the time for culturing microorganisms was increased by a factor of 2 (for example, when the cultivation time was 24 hours, it was left in the thermostat for up to 2 days). The experiment was carried out three times under the same conditions.
# (§6) The criterion of efficacy of drugs in suspension is the death of 100% test microorganisms, with a duration of action not more than 30 minutes.
# [3] = system: Staphylococcus aureus ATCC 209p; experiment: Disinfectant activity in suspension test
# Experimental: as §1, §2, §3, §4, §5, §6
# [4] = 0.1% solution, exposure 1 min, +BSA
# [5] = 0.1% solution, exposure 1 min, −BSA
# [6] = 0.1% solution, exposure 5 min, +BSA
# [7] = 0.1% solution, exposure 5 min, −BSA
# [8] = 0.1% solution, exposure 15 min, +BSA
# [9] = 0.1% solution, exposure 15 min, −BSA
# [10] = 0.2% solution, exposure 1 min, +BSA
# [11] = 0.2% solution, exposure 1 min, −BSA
# [12] = 0.2% solution, exposure 5 min, +BSA
# [13] = 0.2% solution, exposure 5 min, −BSA
# [14] = 0.2% solution, exposure 15 min, +BSA
# [15] = 0.2% solution, exposure 15 min, −BSA
Molecule,excess of MBC giving a decrease in the number of CFU by 3 orders of magnitude [1],"Inhibition rate (M ± SD) of Escherichia coli CDC F-50 growth [2, 4] [%]","Inhibition rate (M ± SD) of Escherichia coli CDC F-50 growth [2, 5] [%]","Inhibition rate (M ± SD) of Escherichia coli CDC F-50 growth [2, 6] [%]","Inhibition rate (M ± SD) of Escherichia coli CDC F-50 growth [2, 7] [%]","Inhibition rate (M ± SD) of Escherichia coli CDC F-50 growth [2, 8] [%]","Inhibition rate (M ± SD) of Escherichia coli CDC F-50 growth [2, 9] [%]","Inhibition rate (M ± SD) of Escherichia coli CDC F-50 growth [2, 10] [%]","Inhibition rate (M ± SD) of Escherichia coli CDC F-50 growth [2, 11] [%]","Inhibition rate (M ± SD) of Escherichia coli CDC F-50 growth [2, 12] [%]","Inhibition rate (M ± SD) of Escherichia coli CDC F-50 growth [2, 13] [%]","Inhibition rate (M ± SD) of Escherichia coli CDC F-50 growth [2, 14] [%]","Inhibition rate (M ± SD) of Escherichia coli CDC F-50 growth [2, 15] [%]","Inhibition rate (M ± SD) Staphylococcus aureus ATCC 209p [3, 4] [%]","Inhibition rate (M ± SD) Staphylococcus aureus ATCC 209p [3, 5] [%]","Inhibition rate (M ± SD) Staphylococcus aureus ATCC 209p [3, 6] [%]","Inhibition rate (M ± SD) Staphylococcus aureus ATCC 209p [3, 7] [%]","Inhibition rate (M ± SD) Staphylococcus aureus ATCC 209p [3, 8] [%]","Inhibition rate (M ± SD) Staphylococcus aureus ATCC 209p [3, 9] [%]","Inhibition rate (M ± SD) Staphylococcus aureus ATCC 209p [3, 10] [%]",further results
"CCCCCCCCCCCC[N+](C)(C)Cc1cnc(C[N+](C)(C)CCCCCCCCCCCC)c2c1COC(CC)O2 (centres unmarked) [Compound I, 5,8-(Bis(methylene (N, N-dimethyl-N-dodecylammonium))-2-ethyl-4H-[1,3]dioxino [4,5-c]pyridiniumdichloride]",4-8 times,99.99 ± 0.005,99.99,99.99 ± 0.005,99.99 ± 0.005,100,100,99.99 ± 0.005,99.99,99.99,99.99,100,100,99.99,99.99,99.99,99.99,99.99 ± 0.005,99.99 ± 0.005,99.99 ± 0.005,"death of Staphylococcus aureus ATCC 209p ([3]; 0.1% solution): 99.99%; Inhibition rate (M ± SD) Staphylococcus aureus ATCC 209p [3, 11]: 100%; Inhibition rate (M ± SD) Staphylococcus aureus ATCC 209p [3, 12]: 99.99 ± 0.005%; Inhibition rate (M ± SD) Staphylococcus aureus ATCC 209p [3, 13]: 100%; Inhibition rate (M ± SD) Staphylococcus aureus ATCC 209p [3, 14]: 100%; Inhibition rate (M ± SD) Staphylococcus aureus ATCC 209p [3, 15]: 100%"
"CCCCCCCCCCCCCC(=O)NCCC[N+](C)(C)Cc1ccccc1.O.[Cl-] [Miramistin, benzyldimethyl [3-(myristoylamino)propyl]-ammonium chloride monohydrate]",16 times,99.98 ± 0.005,99.99,99.99,99.99 ± 0.005,99.99 ± 0.005,100,99.99,99.99,99.99,99.99 ± 0.005,100,100,99.99,99.9,99.99,99.99,99.99 ± 0.005,99.99,99.99,"Inhibition rate (M ± SD) Staphylococcus aureus ATCC 209p [3, 11]: 99.9%; Inhibition rate (M ± SD) Staphylococcus aureus ATCC 209p [3, 12]: 99.99 ± 0.005%; Inhibition rate (M ± SD) Staphylococcus aureus ATCC 209p [3, 13]: 99.99%; Inhibition rate (M ± SD) Staphylococcus aureus ATCC 209p ([3]; 0.2% solution, exposure 15 min, +BSA, listed as miramistin, monohydrate): < 100%; Inhibition rate (M ± SD) Staphylococcus aureus ATCC 209p ([3]; 0.2% solution, exposure 15 min, +BSA, monohydrate): 99.99 ± 0.005%; Inhibition rate (M ± SD) Staphylococcus aureus ATCC 209p [3, 15]: 100%"
alkyldimethyl(phenylmethyl) ammonium chloride [Benzalconium chloride],16 times,99.99 ± 0.005,99.99,99.99 ± 0.005,99.99 ± 0.005,100,100,99.99 ± 0.005,99.99 ± 0.005,100,99.99 ± 0.005,100,100,99.99,99.99,99.99,99.99,99.99 ± 0.005,99.99 ± 0.005,100,"Inhibition rate (M ± SD) Staphylococcus aureus ATCC 209p [3, 11]: 100%; Inhibition rate (M ± SD) Staphylococcus aureus ATCC 209p [3, 12]: 100%; Inhibition rate (M ± SD) Staphylococcus aureus ATCC 209p [3, 13]: 100%; Inhibition rate (M ± SD) Staphylococcus aureus ATCC 209p [3, 14]: 100%; Inhibition rate (M ± SD) Staphylococcus aureus ATCC 209p [3, 15]: 100%"
